Results reported in PubChem BioAssay AID250 (DTP/NCI, 2004).
Toxic doses and inconclusive results are not listed.

Test system: BDF1 mice, L1210 leukemia sc, survival T/C
Test: NCI In Vivo Anticancer Drug Screen. Data for tumor model L1210 Leukemia (subcutaneous) in B6D2F1 (BDF1) mice
Conditions: higher = longer survival
Summary of the method: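 Transplantable tumor-bearing mice; survival or tumor size recorded; result = T/C, treated vs vehicle control.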

SMILES: OCC1OC(n2cnc3c(=S)nc[nH]c32)C(O)C1O (stereo not drawn)
- T/C (endpoint: median survival time, dose: 38.9 mg/kg/injection, schedule: Q01DX Z (sc), vehicle: methylcellulose (MC)): 110 % of control
- T/C (endpoint: median survival time, dose: 50.0 mg/kg/injection, schedule: Q03HX024 (ip), vehicle: other): 150 % of control
- T/C (endpoint: median survival time, dose: 64.8 mg/kg/injection, schedule: Q01DX Z (sc), vehicle: methylcellulose (MC)): 155 % of control
- T/C (endpoint: median survival time, dose: 100.0 mg/kg/injection, schedule: Q03HX024 (ip), vehicle: other): 155 % of control
- T/C (endpoint: median survival time, dose: 100.0 mg/kg/injection, schedule: Q03HX024 (sc), vehicle: other): 155 % of control
- T/C (endpoint: median survival time, dose: 108.0 mg/kg/injection, schedule: Q01DX Z (sc), vehicle: methylcellulose (MC)): 160 % of control
- T/C (endpoint: median survival time, dose: 180.0 mg/kg/injection, schedule: Q01DX Z (sc), vehicle: methylcellulose (MC)): 150 % of control
- T/C (endpoint: median survival time, dose: 200.0 mg/kg/injection, schedule: Q03HX024 (ip), vehicle: other): 161 % of control
- T/C (endpoint: median survival time, dose: 200.0 mg/kg/injection, schedule: Q03HX024 (sc), vehicle: other): 155 % of control
- T/C (endpoint: median survival time, dose: 300.0 mg/kg/injection, schedule: Q01DX Z (sc), vehicle: methylcellulose (MC)): 150 % of control
- T/C (endpoint: median survival time, dose: 400.0 mg/kg/injection, schedule: Q01DX009 (ip), vehicle: other): 155 % of control
- T/C (endpoint: median survival time, dose: 400.0 mg/kg/injection, schedule: Q01DX009 (sc), vehicle: other): 150 % of control
- T/C (endpoint: median survival time, dose: 400.0 mg/kg/injection, schedule: Q03HX024 (ip), vehicle: other): 155 % of control
- T/C (endpoint: median survival time, dose: 400.0 mg/kg/injection, schedule: Q03HX024 (sc), vehicle: other): 105 % of control
- T/C (endpoint: median survival time, dose: 800.0 mg/kg/injection, schedule: Q01DX009 (ip), vehicle: other): 155 % of control
- T/C (endpoint: median survival time, dose: 800.0 mg/kg/injection, schedule: Q01DX009 (sc), vehicle: other): 161 % of control
- T/C (endpoint: median survival time, dose: 1600.0 mg/kg/injection, schedule: Q01DX009 (ip), vehicle: other): 122 % of control
- T/C (endpoint: median survival time, dose: 1600.0 mg/kg/injection, schedule: Q01DX009 (sc), vehicle: other): 155 % of control
- T/C (endpoint: median survival time, dose: 3200.0 mg/kg/injection, schedule: Q01DX009 (sc), vehicle: other): 111 % of control
- T/C (endpoint: median survival time, dose: 3200.0 mg/kg/injection, schedule: Q04DX003 (sc), vehicle: other): 150 % of control

SMILES: CS(=O)(=O)Nc1ccc(Nc2c3ccccc3nc3cc(N)ccc23)cc1
- T/C (endpoint: mean survival time, dose: 1.0 mg/kg/injection, schedule: Q01DX009 (ip), vehicle: saline): 103 % of control
- T/C (endpoint: mean survival time, dose: 2.0 mg/kg/injection, schedule: Q01DX009 (ip), vehicle: saline): 99 % of control

SMILES: CCN(CC)CCNC(=O)N(Cc1ccccc1)c1ccccc1
- T/C (endpoint: median survival time, dose: 22.0 mg/kg/injection, schedule: Q01DX Z (sc), vehicle: methylcellulose (MC)): 100 % of control
- T/C (endpoint: median survival time, dose: 37.0 mg/kg/injection, schedule: Q01DX Z (sc), vehicle: methylcellulose (MC)): 100 % of control
- T/C (endpoint: median survival time, dose: 62.0 mg/kg/injection, schedule: Q01DX Z (sc), vehicle: methylcellulose (MC)): 100 % of control
- T/C (endpoint: median survival time, dose: 104.0 mg/kg/injection, schedule: Q01DX Z (sc), vehicle: methylcellulose (MC)): 100 % of control
- T/C (endpoint: median survival time, dose: 173.0 mg/kg/injection, schedule: Q01DX Z (sc), vehicle: methylcellulose (MC)): 100 % of control
- T/C (endpoint: median survival time, dose: 288.0 mg/kg/injection, schedule: Q01DX Z (sc), vehicle: methylcellulose (MC)): 100 % of control
- T/C (endpoint: median survival time, dose: 480.0 mg/kg/injection, schedule: Q01DX Z (sc), vehicle: methylcellulose (MC)): 100 % of control
- T/C (endpoint: median survival time, dose: 800.0 mg/kg/injection, schedule: Q01DX Z (sc), vehicle: methylcellulose (MC)): 100 % of control

SMILES: NC(Cc1c[nH]c2ccc(N(CCCl)CCCl)cc12)C(=O)O (stereo not drawn)
- T/C (endpoint: median survival time, dose: 0.65 mg/kg/injection, schedule: Q01DX Z (sc), vehicle: methylcellulose (MC)): 105 % of control
- T/C (endpoint: median survival time, dose: 1.08 mg/kg/injection, schedule: Q01DX Z (sc), vehicle: methylcellulose (MC)): 111 % of control
- T/C (endpoint: median survival time, dose: 1.8 mg/kg/injection, schedule: Q01DX Z (sc), vehicle: methylcellulose (MC)): 123 % of control
- T/C (endpoint: median survival time, dose: 8.4 mg/kg/injection, schedule: Q01DX Z (sc), vehicle: methylcellulose (MC)): 117 % of control

SMILES: CCNc1nncs1
- T/C (endpoint: median survival time, dose: 65.0 mg/kg/injection, schedule: Q01DX Z (sc), vehicle: other): 120 % of control
- T/C (endpoint: median survival time, dose: 180.0 mg/kg/injection, schedule: Q01DX Z (sc), vehicle: other): 150 % of control
- T/C (endpoint: median survival time, dose: 300.0 mg/kg/injection, schedule: Q01DX Z (sc), vehicle: other): 175 % of control

SMILES: CN=C(NC)c1ccc(NC(=O)Nc2ccc(NC(=O)Nc3ccc(C(=NC)NC)cc3)cc2)cc1
- T/C (endpoint: median survival time, dose: 3.0 mg/kg/injection, schedule: Q01DX Z (sc), vehicle: saline): 100 % of control
- T/C (endpoint: median survival time, dose: 5.0 mg/kg/injection, schedule: Q01DX Z (sc), vehicle: saline): 105 % of control
- T/C (endpoint: median survival time, dose: 8.4 mg/kg/injection, schedule: Q01DX Z (sc), vehicle: saline): 100 % of control
- T/C (endpoint: median survival time, dose: 14.0 mg/kg/injection, schedule: Q01DX Z (sc), vehicle: saline): 105 % of control
- T/C (endpoint: median survival time, dose: 39.0 mg/kg/injection, schedule: Q01DX Z (sc), vehicle: saline): 115 % of control
- T/C (endpoint: median survival time, dose: 65.0 mg/kg/injection, schedule: Q01DX Z (sc), vehicle: saline): 110 % of control
